Biological target: T1, PLK4 (Homo sapiens, UniProt O00444)
T1 construct: purchased Thermo Fisher Scientific (Life Technologies) SelectScreen
Experiment: SelectScreen LanthaScreen
Type: binding
Details: read-out: % displacement
Summary of the method: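 Percent values come from Thermo SelectScreen profiling of NU5455, combining activity and binding assays. CSF1R was run in Z'LYTE format at Km app ATP, and CAMK1 in Adapta format with ATP listed at 10.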

T1 sequence (O00444 whole entry): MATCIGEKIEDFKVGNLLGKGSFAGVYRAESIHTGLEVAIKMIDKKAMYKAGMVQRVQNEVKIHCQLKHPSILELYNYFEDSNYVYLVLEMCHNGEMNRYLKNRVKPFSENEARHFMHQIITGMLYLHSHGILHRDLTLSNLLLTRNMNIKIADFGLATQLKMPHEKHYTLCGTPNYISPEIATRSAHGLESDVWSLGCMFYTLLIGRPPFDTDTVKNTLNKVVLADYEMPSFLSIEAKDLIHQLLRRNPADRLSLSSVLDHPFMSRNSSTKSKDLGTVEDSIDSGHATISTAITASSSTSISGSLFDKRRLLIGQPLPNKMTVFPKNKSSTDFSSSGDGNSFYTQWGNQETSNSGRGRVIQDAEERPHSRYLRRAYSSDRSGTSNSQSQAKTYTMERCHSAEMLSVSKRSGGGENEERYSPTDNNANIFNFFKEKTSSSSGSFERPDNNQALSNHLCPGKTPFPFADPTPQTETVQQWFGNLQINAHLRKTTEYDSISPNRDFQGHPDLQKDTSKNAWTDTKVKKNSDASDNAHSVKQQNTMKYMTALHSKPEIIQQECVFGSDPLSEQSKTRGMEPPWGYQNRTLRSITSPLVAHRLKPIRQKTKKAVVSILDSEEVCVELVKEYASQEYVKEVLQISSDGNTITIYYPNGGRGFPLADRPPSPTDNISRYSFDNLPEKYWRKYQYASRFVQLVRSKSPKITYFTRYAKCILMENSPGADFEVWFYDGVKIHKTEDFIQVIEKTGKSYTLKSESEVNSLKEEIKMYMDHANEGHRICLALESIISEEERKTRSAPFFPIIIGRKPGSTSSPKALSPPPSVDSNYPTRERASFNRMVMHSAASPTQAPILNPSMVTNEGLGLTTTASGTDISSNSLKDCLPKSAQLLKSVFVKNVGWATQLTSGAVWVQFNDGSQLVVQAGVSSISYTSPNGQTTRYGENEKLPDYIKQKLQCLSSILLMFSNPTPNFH

## CN(C(=O)CN1CCOCC1)c1ccc2sc3c(-c4cccc5c(=O)cc(N6CC7CCC(C6)O7)oc45)cccc3c2c1 [NU5455]
  inhibition at 1 µM: -2.8%

Reference: article PMC6934184, “Selective DNA-PKcs inhibition extends the therapeutic index of localized radiotherapy and chemotherapy” (The Journal of Clinical Investigation, 2019)
